# Results reported in publication PMC11596957, “Biological Characteristics of a Novel Bibenzyl Synthase (DoBS1) Gene from Dendrobium officinale Catalyzing Dihydroresveratrol Synthesis” (Molecules, 2024).
# Target: T1, DoBS1 (bibenzyl synthase) (Dendrobium officinale, UniProt Z9NEY1S5B3)
# T1 construct: type III PKS family known as homodimer
# T1 sequence (Z9NEY1S5B3 1-390): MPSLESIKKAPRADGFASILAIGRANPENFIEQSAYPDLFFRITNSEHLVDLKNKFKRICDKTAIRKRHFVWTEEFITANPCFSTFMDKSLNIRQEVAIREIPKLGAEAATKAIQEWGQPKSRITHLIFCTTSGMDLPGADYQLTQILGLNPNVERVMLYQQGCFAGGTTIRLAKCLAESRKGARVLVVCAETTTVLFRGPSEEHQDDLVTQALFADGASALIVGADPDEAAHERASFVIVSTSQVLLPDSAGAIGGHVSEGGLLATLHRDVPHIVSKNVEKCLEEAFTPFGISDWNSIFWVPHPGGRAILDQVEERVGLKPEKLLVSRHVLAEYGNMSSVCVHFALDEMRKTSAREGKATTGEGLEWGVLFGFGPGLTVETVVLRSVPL
# Assay: HPLC of dihydroresveratrol formation, Michaelis-Menten fit
# Type: biochemical
# Conditions: co-substrate malonyl-CoA (2.5 mM in the described assay), 37 °C, 30 min; text gives the Km 'for DHR' production, Figure 7 legend names p-coumaroyl-CoA as varied substrate; unit printed as mmol
# Description: HPLC of dihydroresveratrol formation, Michaelis-Menten fit on DoBS1 (bibenzyl synthase) | Kinetic analysis of DoBS1 toward p-coumaroyl-CoA
structure (smiles),measurement,value
CC(C)(COP(=O)(O)OP(=O)(O)OC[C@H]1O[C@@H](n2cnc3c(N)ncnc32)[C@H](O)[C@@H]1OP(=O)(O)O)[C@@H](O)C(=O)NCCC(=O)NCCSC(=O)/C=C/c1ccc(O)cc1 [p-coumaroyl-CoA],Km,0.30 ± 0.08 mmol
